Results taken from paper PMC11096368, “Transcriptomic signature, bioactivity and safety of a non-hepatotoxic analgesic generating AM404 in the midbrain PAG region” (Scientific Reports, 2024).
“Also recorded” adds a separate entry of the source.

What was measured:
Assay type in all cases: in vivo
CD-1 male mice = experiment: LPS fever induction antipyresis assay; conditions: 75 mg/kg PO, LPS 100 μg/kg ip, n = 20
Method: (§1) Antipyresis experiments were carried out with n = 60 CD-1 male mice weighing between 45 and 50 g. All mice were kept in a 12-h day/12-h night cycle with free access to food and water ad libitum. After habituating and acclimating the mice for a week, each mouse was briefly anesthetized for 1 min with 1% isoflurane and implanted subcutaneously a transmitter probe that records core body temperature – Implantable Programmable Temperature Transponder (IPTT-300) by Bio Medic Data Systems (BMDS), DE, USA. The mice were allowed to recover for at least one week from the surgery before any recordings were made and observed in their home cages prior to pyrogen challenge for inducing fever. Temperatures were recorded using the BMDS DAS-8027-IUS data reading system.
All mice were fasted overnight (15 h) with free access to water ad libitum prior to the pyrogen challenge. For the induction of fever, LPS from E. coli (100 μg/kg, 0111:B4) (MilliporeSigma, Billerica, MA, USA) was used. Mice received either LPS in 0.9% saline (sterile) (vehicle) or just 0.9% saline as an intraperitoneal (ip) injection.
All drugs and vehicle (10% DMSO: 10% labrasol :80% PEG400) were administered by oral gavage, PO dosing. Each dosing volume was ~ 0.3–0.4 mL per mouse. […] We chose this dose to record antipyretic effect in a low dose that doesn’t cause hypothermia in mice.

male CD1 mice = experiment: Baker yeast-induced hyperthermia antipyresis assay; conditions: 75 mg/kg per os, n = 10
Method: as §1
15% yeast, 0.1 mL/kg (MilliporeSigma, Billerica, MA, USA) was used to induce fever. All animals used in this assay were male CD1 mice, which were fasted overnight (15 h) before the start of the assay.
Mice received either yeast in 0.9% saline (sterile) (vehicle) or just 0.9% saline as an ip injection. […] All mice that didn’t show a significant change in body temperature or appeared sick post-pyrogen challenge were excluded (n = 5) from subsequent drug administrations.
All drugs and vehicle (10% DMSO: 10% labrasol :80% PEG400) were administered by oral gavage, PO administration. Each dosing volume was ~ 0.3–0.4 mL per mouse. […]

Sprague–Dawley rats = experiment: CFA-induced inflammatory pain / Hargreaves thermal sensitivity assay; conditions: high dose (100 mg/kg)
Excerpt: In these same cohorts of animals, we simultaneously measured their thermal nociception to hyperalgesia with the Hargreaves test using the plantar test apparatus (Ugo Basile 37,570). In this experimental setup, the rodents are placed in plastic cages on top of a glass surface, and their hind paws are subjected to an infrared heat stimulus. One hind paw at a time is stimulated with the light source (noxious stimuli) until the animal retracts the paw from the glass surface because of the stimulus. Baseline withdrawal thresholds (latency) of both the right and left paws were recorded, and animals were assigned to different treatment groups so that each group had approximately equal withdrawal threshold averages in both paws. After baseline testing, treated animals received subcutaneous plantar injection (150 μl) of 50% CFA into the left hind paw, while control animals received a plantar injection (150 µl) of 0.9% NaCl into their left hind paw. CFA induces inflammation, resulting in a left hind paw that is hypersensitive to the thermal stimulus, while the right hind paw serves as a within-subject baseline for each animal. To obtain Hargreaves withdrawal latency recordings, each animal was placed in an individual plastic observation compartment on a glass platform, which provided access to the plantar surface of the hind paws from underneath. After acclimation to the environment for 30 min, thermal hypersensitivity was assessed by stimulating the mid-plantar area of each hind paw with a bright light source attached to the meter (Ugo Basile 37,570) until animals withdrew the paw from the surface. The withdrawal threshold was defined as the average time (s) required for the rat to withdraw the stimulated paw. A brisk withdrawal of the paw (often followed by a sustained retraction and/or licking) was considered a positive response, but paw withdrawals due to locomotion or weight shifting were not counted. The Hargreaves studies were conducted with the plantar stimulation device that automatically registers the time (s) necessary to elicit paw withdrawal in order to eliminate bias in determining paw withdrawal thresholds. A cutoff of 20 s is pre-programmed so that the light source shuts off at that maximal period so as to not induce any burns on the plantar surface of the rodents. The Hargreaves test permits measurement of ipsilateral and contralateral heat thresholds, allowing each animal to serve as its own internal control in unilateral pain models. In addition, the Hargreaves test enables quantification of heat thresholds in unrestrained animals, reducing the likelihood of stress-induced responses.

[1] = LC–MS/MS identification of serum NAPQI; conditions: 600 mg/kg, CD-1 mice
Method: […] (NAPQI) was extracted from the serum by adding 3 volumes of ethyl-acetate to 1 volume of serum and storing them on ice for 30 min, followed by centrifugation at 3000g for 30 min. Afterward, the supernatant was transferred into mass spectrometry vials and dried under N2 gas. The serum was then washed with another 3 volumes of ethyl-acetate, and the supernatant was added back to the same mass spectrometry vial, followed by evaporation under a stream of N2 gas. The sample was re-suspended with 50 µl of 1:1 MeOH:H2O for LC–MS/MS experimentation. The mass spectrophotometer was operated in multiple reaction monitoring (MRM) mode using positive ion electrospray. NAPQI was detected by monitoring the m/z transition 150.3 → 108.1. Pure NAPQI analytical standard (10 ng/mL) obtained from Cayman Chemical (Ann Arbor, MI) was used to characterize the full fragmentation pattern of NAPQI and determine the likely fragments.

[2] = young male and young female rats

SMILES	Antipyresis, LPS fever (CD-1 male mice)	Antipyresis, yeast fever (core body temperature) (male CD1 mice)	Analgesia in Hargreaves assay (paw withdrawal latencies) (Sprague–Dawley rats; aged male rats)	Analgesia in Hargreaves assay (paw withdrawal latencies) (Sprague–Dawley rats; [2])	Formation of the hepatotoxic metabolite NAPQI (serum) [1]
CC(=O)Nc1ccc(O)cc1 [ApAP, acetaminophen, reference compound]	comparable antipyresis	subsequent reduction in core body temperature	significant analgesia	significant analgesia	a NAPQI peak is seen; also recorded: significantly enhanced; also recorded: NAPQI peak appears
CCN(CC)C(=O)c1ccccc1S(=O)(=O)NCC(=O)Nc1ccc(O)cc1 [SRP-001, N,N-diethyl-2-[[2-(4-hydroxyanilino)-2-oxo-ethyl]sulfamoyl]benzamide]	comparable antipyresis	subsequent reduction in core body temperature	significant analgesia	significant analgesia	lack of formation of the toxic quinonimine metabolite NAPQI; also recorded: does not produce the hepatotoxic metabolite; also recorded: lack of production of NAPQI
